These results are taken from patent publication US11691949B2, “Quinoline sulfonamide compounds and their use as antibacterial agents” (OTAGO INNOVATION LIMITED, priority 2017, dated 2023).

Converted amounts (≈) assume the structure as drawn. Read-outs that look alike come from different tables or passages of the source. Some results are limits rather than exact numbers.

Assay type in all cases: cell-based
In one assay the test system is S. uberis ATCC 19436. As to the kind of experiment: MIC by broth microdilution, S. uberis. The note with it: Streptococcus uberis, read-out: S. uberis ATCC 19436 MIC. In a few lines: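 Streptococcus uberis ATCC 19436 was tested in Todd Hewitt Broth by broth microdilution in 96-well flat bottom plates, in biological triplicate. Overnight cells were diluted to OD600 of approximately 0.025, giving about 5×10^5 cfu/mL in the wells. Compounds were serially diluted two-fold to 200 μl, incubated 24 h at 37° C. and 200 rpm, and the MIC was taken from OD600.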
(In general: In broth dilution the organism is exposed to a series of concentrations in liquid medium.)

For a further assay, the system named is S. aureus ATCC 6538. Description: MIC by broth microdilution, S. aureus. The conditions noted are these: Staphylococcus aureus, read-out: S. aureus ATCC 6538 MIC. A digest of the protocol: (§1)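 Media: TSB or CAMHB for S. aureus, LB or CAMHB for E. coli, with zinc sulphate to 50 μM final where required. Cells at ~5×10^5 cfu/mL met two-fold compound series; growth was scored by OD600 after 24 h shaking at 37° C.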

A further assay relates to E. coli ATCC 10596. As to the kind of experiment: MIC by broth microdilution, E. coli. The conditions noted are these: Escherichia coli, read-out: E. coli ATCC 10536 MIC. A digest of the protocol: as §1
Setting [1] is: ATCC 10536 / ATCC 10596, No Zinc.
Where [2] appears, read: ATCC 10536 / ATCC 10596, Zinc (50 μM).

One may read the MIC as the smallest concentration in the dilution series that meets the test's criterion for growth inhibition. As for `O=S(=O)(Nc1cccc2ccc(/C=N/NCc3ccccc3)nc12)c1ccc(C(F)(F)F)cc1` [ZDR138, (E)-N-(2-((2-Benzylhydrazineylidene)methyl)quinolin-8-yl)-4-(trifluoromethyl)benzenesulfonamide], the MIC with S. uberis ATCC 19436 (ATCC19436, No Zinc) is over 256 µg/mL; in the assay with S. uberis ATCC 19436 (ATCC19436, Zinc (50 μM)), 0.5 µg/mL (≈ 1.03 µM); in the assay on S. aureus ATCC 6538 (ATCC6538, No Zinc) it was 128 µg/mL (≈ 264 µM); with S. aureus ATCC 6538 (ATCC6538, Zinc (50 μM)) it was 128 µg/mL (≈ 264 µM); with E. coli ATCC 10596 (setting [1]), over 256 µg/mL; with E. coli ATCC 10596 (setting [2]), over 256 µg/mL.
Regarding `CC(C)(C)OC(=O)N=C(NCCNCc1ccc2cccc(NS(=O)(=O)c3ccc(C(F)(F)F)cc3)c2n1)NC(=O)OC(C)(C)C` [ZDR139, N-(2-(((N,N′-Bis-Boc-2-Guanidinoethyl)amino)methyl)quinolin-8-yl)-4-(trifluoromethyl)benzenesulfonamide], the MIC in the assay on S. uberis ATCC 19436 (ATCC19436, No Zinc) is 64 µg/mL (≈ 96 µM); in the assay with S. uberis ATCC 19436 (ATCC19436, Zinc (50 μM)) it was 0.125 µg/mL (≈ 0.187 µM); in the assay with S. aureus ATCC 6538 (ATCC6538, No Zinc) it was 256 µg/mL (≈ 384 µM); in the assay on S. aureus ATCC 6538 (ATCC6538, Zinc (50 μM)) it was 256 µg/mL (≈ 384 µM); in the assay on E. coli ATCC 10596 (setting [1]), over 256 µg/mL; with E. coli ATCC 10596 (setting [2]), over 256 µg/mL.
`N/C(=N\[N+](=O)[O-])NCCNCc1ccc2cccc(NS(=O)(=O)c3ccc(C(F)(F)F)cc3)c2n1` [ZDR145, (E)-N-(2-(((2-(2-Nitroguanidino)ethyl)amino)methyl)quinolin-8-yl)-4-(trifluoromethyl)benzenesulfonamide]: the MIC with S. uberis ATCC 19436 (ATCC19436, No Zinc) is over 256 µg/mL; in the assay with S. uberis ATCC 19436 (ATCC19436, Zinc (50 μM)) it was over 256 µg/mL; with S. aureus ATCC 6538 (ATCC6538, No Zinc), 64 µg/mL (≈ 125 µM); in the assay with S. aureus ATCC 6538 (ATCC6538, Zinc (50 μM)), 128 µg/mL (≈ 250 µM); in the assay with E. coli ATCC 10596 (setting [1]), 128 µg/mL (≈ 250 µM); in the assay with E. coli ATCC 10596 (setting [2]), 256 µg/mL (≈ 501 µM).
Turning to `CC(=O)NCCNCc1ccc2cccc(NS(=O)(=O)c3ccc(C(F)(F)F)cc3)c2n1` [ZDR148, N-(2-(((8-((4-(Trifluoromethyl)phenyl)sulfonamido)quinolin-2-yl)methyl)amino)ethyl)acetamide], the MIC in the assay with S. uberis ATCC 19436 (ATCC19436, No Zinc) is 64 µg/mL (≈ 137 µM); with S. uberis ATCC 19436 (ATCC19436, Zinc (50 μM)), 1 µg/mL (≈ 2.14 µM); in the assay with S. aureus ATCC 6538 (ATCC6538, No Zinc), 64 µg/mL (≈ 137 µM); in the assay on S. aureus ATCC 6538 (ATCC6538, Zinc (50 μM)), 128 µg/mL (≈ 274 µM); with E. coli ATCC 10596 (setting [1]), 128 µg/mL (≈ 274 µM); in the assay on E. coli ATCC 10596 (setting [2]), 256 µg/mL (≈ 549 µM).
For `CN/N=C/c1ccc2cccc(NS(=O)(=O)c3ccc(C(F)(F)F)cc3)c2n1` [ZDR153, (E)-N-(2-((2-Methylhydrazineylidene)methyl)quinolin-8-yl)-4-(trifluoromethyl)benzenesulfonamide], the minimal inhibitory concentration (MIC) was over 256 µg/mL in the assay on S. uberis ATCC 19436 (ATCC19436, No Zinc); 0.5 µg/mL (≈ 1.22 µM) with S. uberis ATCC 19436 (ATCC19436, Zinc (50 μM)); 64 µg/mL (≈ 157 µM) with S. aureus ATCC 6538 (ATCC6538, No Zinc); 64 µg/mL (≈ 157 µM) in the assay on S. aureus ATCC 6538 (ATCC6538, Zinc (50 μM)); over 256 µg/mL in the assay on E. coli ATCC 10596 (setting [1]); over 256 µg/mL in the assay on E. coli ATCC 10596 (setting [2]).
As to `CN(C)Cc1ccc2cccc(NS(=O)(=O)c3ccc(S(N)(=O)=O)cc3)c2n1` [ZDR154, N-(2-((Dimethylamino)methyl)quinolin-8-yl)benzene-1,4-disulfonamide], the MIC was over 256 µg/mL in the assay with S. uberis ATCC 19436 (ATCC19436, No Zinc); 16 µg/mL (≈ 38 µM) with S. uberis ATCC 19436 (ATCC19436, Zinc (50 μM)); over 256 µg/mL in the assay on S. aureus ATCC 6538 (ATCC6538, No Zinc); over 256 µg/mL in the assay with S. aureus ATCC 6538 (ATCC6538, Zinc (50 μM)); over 256 µg/mL in the assay with E. coli ATCC 10596 (setting [1]); over 256 µg/mL with E. coli ATCC 10596 (setting [2]).
Turning to `CN(C)Cc1ccc2cccc(NS(=O)(=O)c3cccc(S(N)(=O)=O)c3)c2n1` [ZDR155, N-(2-((Dimethylamino)methyl)quinolin-8-yl)benzene-1,3-disulfonamide], the MIC in the assay on S. uberis ATCC 19436 (ATCC19436, No Zinc) is over 256 µg/mL; in the assay with S. uberis ATCC 19436 (ATCC19436, Zinc (50 μM)) it was over 256 µg/mL; with S. aureus ATCC 6538 (ATCC6538, No Zinc), over 256 µg/mL; with S. aureus ATCC 6538 (ATCC6538, Zinc (50 μM)) it was over 256 µg/mL; with E. coli ATCC 10596 (setting [1]), over 256 µg/mL; in the assay with E. coli ATCC 10596 (setting [2]), over 256 µg/mL.
In the case of `CN(C)Cc1ccc2cccc(NS(=O)(=O)c3ccc(N)cc3)c2n1` [ZDR160, 4-Amino-N-(2-((dimethylamino)methyl)quinolin-8-yl)benzenesulfonamide], the MIC with S. uberis ATCC 19436 (ATCC19436, No Zinc) is 256 µg/mL (≈ 718 µM); in the assay with S. uberis ATCC 19436 (ATCC19436, Zinc (50 μM)), over 256 µg/mL; in the assay with S. aureus ATCC 6538 (ATCC6538, No Zinc), over 256 µg/mL; in the assay with S. aureus ATCC 6538 (ATCC6538, Zinc (50 μM)) it was over 256 µg/mL; in the assay on E. coli ATCC 10596 (setting [1]), over 256 µg/mL; in the assay on E. coli ATCC 10596 (setting [2]) it was over 256 µg/mL.
As to `CN(C)Cc1ccc2cccc(NS(=O)(=O)c3cccc(N)c3)c2n1` [ZDR162, 3-Amino-N-(2-((dimethylamino)methyl)quinolin-8-yl)benzenesulfonamide], the minimal inhibitory concentration (MIC) with S. uberis ATCC 19436 (ATCC19436, No Zinc) was 256 µg/mL (≈ 718 µM); in the assay with S. uberis ATCC 19436 (ATCC19436, Zinc (50 μM)), 16 µg/mL (≈ 44.9 µM); in the assay on S. aureus ATCC 6538 (ATCC6538, No Zinc), over 256 µg/mL; with S. aureus ATCC 6538 (ATCC6538, Zinc (50 μM)), over 256 µg/mL; in the assay with E. coli ATCC 10596 (setting [1]), over 256 µg/mL; with E. coli ATCC 10596 (setting [2]) it was over 256 µg/mL.
